The values that follow come from patent US11883387B2, “PqsR inverse agonists” (HELMHOLTZ-ZENTRUM FÜR INFEKTIONSFORSCHUNG GMBH, priority 2018, dated 2024).

The term IC50 denotes the point on the concentration scale where inhibition reaches its midpoint. As a reminder, the solubility is how much of the substance goes into solution per volume. Low values mean a poorly soluble substance, high ones a readily soluble substance.

Series [1] in a line: Metabolic stability in mouse liver microsomes (MLM). The format is in vitro ADME. The conditions noted are these: 1 μM compound, 0.5 mg/mL MLM, 1 mM NADPH, 37° C., read-out: half-life (t1/2) towards MLM. On the procedure: For the evaluation of phase I metabolic stability, the compound (1 μM) was incubated with 0.5 mg/mL MLM (Corning) and 1 mM NADPH at 37° C. for 0, 5, 10, 15 and 30 min. The metabolic stability of Verapamil, Diphenhydramine and Benzydamine (1 μM each) were determined in parallel to confirm the enzymatic activity of the MLM. The incubation was stopped by addition of 2 volumes of acetonitrile containing internal standard (1 μM Leucine Enkephaline). Samples were centrifuged (15 min, 3,500 rpm). Concentration of the remaining test compound at the different time points was analyzed by HPLC-MS/MS and used to determine half-life (t1/2).

The target of a further series is PqsR (Pseudomonas aeruginosa, UniProt Q9I4X0). Kind of series: E. coli based β-galactosidase reporter gene assay (PqsR inverse agonistic activity). It counts as cell-based. The arrangement: expressed in transfected cells; host or cells: Escherichia coli DH5α. The method in brief:
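E. coli DH5α carrying pEAL08-2 (tac-driven pqsR with pqsA-lacZ) was grown to OD600 0.2 and incubated with 0.001–10 μM compound plus 50 nM PQS for 2.5 h at 37 °C. β-Galactosidase activity was measured by ONPG conversion in permeabilized cells and normalized between the no-PQS and solvent controls. IC50 came from concentration variation.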
On the technique in general: Reporter assays use an easily measured gene product as a stand-in for the process of interest.

Series [2] has as its system P. aeruginosa pyocyanin production. The series can be described thus: Pyocyanin assay. It counts as cell-based, P. aeruginosa PA14. The note with it: Pseudomonas aeruginosa, PA14, 16 h, read-out: IC50-value towards pyocyanin production, PA14 in PPGAS medium, 16 h. The method in brief: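 PA14 in PPGAS medium from OD600 0.02 grown 16 h at 37 °C, 200 rpm, with compounds. Pyocyanin extracted with chloroform, back-extracted into 0.2 M HCl, OD520 normalised to OD600.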

The nature of series [3]: Kinetic Turbidimetric Aqueous Solubility at room temperature for 5 min. The format is physicochemical. The conditions noted are these: PBS buffer, kinetic from dmso stock, 2% DMSO. The protocol:
Kinetic Turbidimetric Aqueous Solubility at room temperature for 5 min. Test compound was diluted in PBS buffer to give a range of concentrations (typically 0.4, 2, 4, 20, 40, 100, and 200 μM, final DMSO concentration 2%) and incubated at room temperature for 5 min. Absorbance was measured at a wavelength of 620 nm and the solubility was estimated from the concentration of test compound that produces an increase in absorbance above the vehicle control (i.e., […]). Data was analyzed by fitting a four parameter sigmoidal function to the measured and normalized absorbances and AUC calculation providing access to Log S (decadic logarithm of the solubility).

PqsR, sequence (Q9I4X0 whole entry): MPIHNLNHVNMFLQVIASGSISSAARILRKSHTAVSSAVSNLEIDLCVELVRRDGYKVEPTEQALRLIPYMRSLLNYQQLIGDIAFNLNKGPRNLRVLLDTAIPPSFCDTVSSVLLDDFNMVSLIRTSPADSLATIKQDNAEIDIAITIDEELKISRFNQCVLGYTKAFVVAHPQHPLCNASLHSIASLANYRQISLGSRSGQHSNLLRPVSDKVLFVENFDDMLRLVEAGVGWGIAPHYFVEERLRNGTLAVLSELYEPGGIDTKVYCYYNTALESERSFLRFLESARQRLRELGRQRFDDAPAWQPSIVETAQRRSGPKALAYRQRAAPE

As to `O=C(c1ccccc1)c1ccc(-n2cc(CNc3ccnc(C(F)(F)F)c3)nn2)cc1` [Compound 004, Phenyl(4-(4-(((2-(trifluoromethyl)pyridin-4-yl)amino)methyl)-1H-1,2,3-triazol-1-yl)phenyl)methanone], the half-life at 1 μM in series [1] was > 1 h. The IC50 was ≤ 50 nM at PqsR and 1000 to 5000 nM in series [2]. Moreover, in series [3], the solubility at 5 min was > 25 µM.

Take `FC(F)(F)c1cc(NCc2cn(-c3ccc(Oc4ccccc4)cc3)nn2)cc(I)n1` [Compound 007, 2-Iodo-N-((1-(4-phenoxyphenyl)-1H-1,2,3-triazol-4-yl)methyl)-6-(trifluoromethyl)pyridin-4-amine]: in series [1], the half-life at 1 μM was in the range of 0.517 to 1 h. The 50% inhibitory concentration (IC50) at PqsR is ≤ 50 nM; in series [2], 251 to 1000 nM.

For `FC(F)(F)c1cc(NCc2cn(-c3ccc(Oc4cccc(Cl)c4)cc3)nn2)ccn1` [Compound 030, N-((1-(4-(3-Chlorophenoxy)phenyl)-1H-1,2,3-triazol-4-yl)methyl)-2-(trifluoromethyl)pyridin-4-amine], in series [1], the half-life at 1 μM was > 1 h. Besides, on PqsR, the IC50 is ≤ 50 nM.

With `FC(F)(F)c1cc(NCc2cn(-c3ccc(Oc4ccccc4)cc3)nn2)cc(Cl)n1` [Compound 032, 2-Chloro-N-((1-(4-phenoxyphenyl)-1H-1,2,3-triazol-4-yl)methyl)-6-(trifluoromethyl)pyridin-4-amine], in series [1], the half-life at 1 μM was > 1 h. Moreover, the half-inhibitory concentration (IC50) at PqsR is ≤ 50 nM.

In the case of `FC(F)(F)c1cc(NCc2cn(-c3ccc(Oc4ccc(Cl)cc4)cc3)nn2)ccn1` [Compound 037, N-((1-(4-(4-Chlorophenoxy)phenyl)-1H-1,2,3-triazol-4-yl)methyl)-2-(trifluoromethyl)pyridin-4-amine], in series [1], the half-life at 1 μM was > 1 h. Besides, on PqsR, the IC50 is ≤ 50 nM. In series [3], the solubility at 5 min is > 10 µM.

Consider `FC(F)(F)c1cc(NCc2cn(-c3ccc(Br)cc3)nn2)ccn1` [Compound 039, N-((1-(4-Bromophenyl)-1H-1,2,3-triazol-4-yl)methyl)-2-(trifluoromethyl)pyridin-4-amine], for which the half-life at 1 μM in series [1] lay within 0.517 to 1 h. At PqsR, this compound displayed an IC50 of 251 to 1000 nM. In series [3], the solubility at 5 min was > 50 µM.

`FC(F)(F)c1cc(NCc2cn(-c3ccc(-n4ccc5ccccc54)cc3)nn2)ccn1` [Compound 040, N-((1-(4-(1H-Indol-1-yl)phenyl)-1H-1,2,3-triazol-4-yl)methyl)-2-(trifluoromethyl)pyridin-4-amine]: the half-life at 1 μM in series [1] is 0.517 to 1 h. Further, the results for the IC50 (at PqsR; in series [2]) were 51 to 250 nM and 251 to 1000 nM, respectively. Further, the solubility at 5 min in series [3] was > 25 µM.

In the case of `N#Cc1cc(NCc2cn(-c3ccc(Oc4ccccc4)cc3)nn2)ccn1` [Compound 041, 4-(((1-(4-Phenoxyphenyl)-1H-1,2,3-triazol-4-yl)methyl)amino)picolinonitrile], in series [1], the half-life at 1 μM was in the range of 0.517 to 1 h. The IC50 on PqsR was ≤ 50 nM. Besides, in series [3], the solubility at 5 min was > 10 µM.

Take `FC(F)(F)c1cc(NCc2cn(-c3ccc(-n4cnc5ccccc54)cc3)nn2)ccn1` [Compound 045, N-((1-(4-(1H-benzo[d]imidazol-1-yl)phenyl)-1H-1,2,3-triazol-4-yl)methyl)-2-(trifluoromethyl)pyridin-4-amine]: the half-life at 1 μM in series [1] lay in the range of 0.517 to 1 h. Further, the IC50 on PqsR was in the range of 51 to 250 nM; in series [2], 1000 to 5000 nM. Besides, in series [3], the solubility at 5 min is > 25 µM.

Turning to `Clc1cc(NCc2cn(-c3ccc(Oc4ccccc4)cc3)nn2)cc(Cl)n1` [Compound 048, 2,6-Dichloro-N-((1-(4-phenoxyphenyl)-1H-1,2,3-triazol-4-yl)methyl)pyridin-4-amine], in series [1], the half-life at 1 μM was 0.517 to 1 h. The 50% inhibitory concentration (IC50) on PqsR is ≤ 50 nM; in series [2] it was ≤ 250 nM.

Turning to `O=C(c1ccccc1)c1ccc(-n2cc(CSc3ccnc(C(F)(F)F)c3)nn2)cc1` [Compound 057, Phenyl(4-(4-(((2-(trifluoromethyl)pyridin-4-yl)thio)methyl)-1H-1,2,3-triazol-1-yl)phenyl)methanone], in series [1], the half-life at 1 μM was > 1 h. The same compound yielded a half-inhibitory concentration (IC50) at PqsR of 51 to 250 nM.

Turning to `Nc1cc(SCc2cnc(-c3ccc(Oc4ccccc4)cc3)s2)nc(C(F)(F)F)n1` [Compound 068, 6-(((2-(4-phenoxyphenyl)thiazol-5-yl)methyl)thio)-2-(trifluoromethyl)pyrimidin-4-amine], the half-life at 1 μM in series [1] was > 1 h. The solubility at 5 min in series [3] was > 10 µM.

As to `COc1ccc(-c2ncc(CSc3cc(N)nc(C(F)(F)F)n3)s2)cc1Cl` [Compound 069, 6-(((2-(3-chloro-4-methoxyphenyl)thiazol-5-yl)methyl)thio)-2-(trifluoromethyl) pyrimidin-4-amine], the half-life at 1 μM in series [1] was > 1 h. The solubility at 5 min in series [3] is > 25 µM.

In the case of `Fc1ccc(Oc2ccc(-c3nc(CNc4ccnc(C(F)(F)F)c4)cs3)cn2)cc1` [Compound 083, N-((2-(6-(4-Fluorophenoxy)pyridin-3-yl)thiazol-4-yl)methyl)-2-(trifluoromethyl)pyridin-4-amine], in series [1], the half-life at 1 μM was > 1 h. On PqsR, the concentration for half-maximal inhibition (IC50) is 51 to 250 nM.

For the compound `Fc1ccc(Oc2ccc(-c3nc(CNc4ccnc(C(F)(F)F)c4)cs3)cc2)cc1` [Compound 088, N-((2-(4-(4-Fluorophenoxy)phenyl)thiazol-4-yl)methyl)-2-(trifluoromethyl)pyridin-4-amine], the half-life at 1 μM in series [1] was > 1 h. Moreover, on PqsR, the IC50 was ≤ 50 nM.

`FC(F)(F)c1cc(NCc2cnc(-c3ccc(Oc4ccccc4)cc3)s2)cc(Cl)n1` [Compound 092, 2-Chloro-N-((2-(4-phenoxyphenyl)thiazol-5-yl)methyl)-6-(trifluoromethyl)pyridin-4-amine]: in series [1], the half-life at 1 μM is 0.517 to 1 h. The IC50 at PqsR was ≤ 50 nM; in series [2] it was 251 to 1000 nM.

Turning to `Clc1cc(NCc2cnc(-c3ccc(Oc4ccccc4)cc3)s2)ccn1` [Compound 093, 2-Chloro-N-((2-(4-phenoxyphenyl)thiazol-5-yl)methyl)pyridin-4-amine], the half-life at 1 μM in series [1] lay in the range of 0.517 to 1 h. Besides, the IC50 was ≤ 50 nM on PqsR and 251 to 1000 nM in series [2].

In the case of `FC(F)(F)c1cc(NCc2ccc(-c3ccc(Cl)nc3)cn2)ccn1` [Compound 098, N-((6′-Chloro-[3,3′-bipyridin]-6-yl)methyl)-2-(trifluoromethyl)pyridin-4-amine], the half-life at 1 μM in series [1] is > 1 h. The 50% inhibitory concentration (IC50) at PqsR was 51 to 250 nM. Also, the solubility at 5 min in series [3] was ≥ 100 µM.

As for `FC(F)(F)c1cc(NCc2ccc(-c3ccc(Oc4ccccc4)nc3)cn2)ccn1` [Compound 100, N-((6′-Phenoxy-[3,3′-bipyridin]-6-yl)methyl)-2-(trifluoromethyl)pyridin-4-amine], the half-life at 1 μM in series [1] is 0.517 to 1 h. The compound also registered a half-maximal inhibitory concentration (IC50) at PqsR of 51 to 250 nM. Besides, the solubility at 5 min in series [3] was > 25 µM.

Regarding `FC(F)(F)c1cc(NCc2ccc(-c3cccc(Oc4ccccc4)c3)cn2)ccn1` [Compound 103, N-((5-(3-Phenoxyphenyl)pyridin-2-yl)methyl)-2-(trifluoromethyl)pyridin-4-amine], the half-life at 1 μM in series [1] fell in the range of 0.517 to 1 h. Moreover, the IC50 at PqsR lay in the range of 251 to 1000 nM; in series [2], 1000 to 5000 nM.

Take `FC(F)(F)c1cc(NCc2nc3cc(Cl)c(Cl)cc3[nH]2)ccn1` [Compound 121, N-((5,6-Dichloro-1H-benzo[d]imidazol-2-yl)methyl)-2-(trifluoromethyl)pyridin-4-amine]: in series [1], the half-life at 1 μM was in the range of 0.517 to 1 h. The 50% inhibitory concentration (IC50) at PqsR lay in the range of 251 to 1000 nM. Further, the solubility at 5 min in series [3] was ≥ 100 µM.

With `FC(F)(F)c1cc(NCc2cc(-c3ccc(Oc4ccccc4)cc3)no2)ccn1` [Compound 139, N-((3-(4-phenoxyphenyl)isoxazol-5-yl)methyl)-2-(trifluoromethyl)pyridin-4-amine], the half-life at 1 μM in series [1] was in the range of 0.517 to 1 h. Moreover, the IC50 on PqsR is ≤ 50 nM.

For the compound `Fc1ccc(Oc2ccc3[nH]c(CNc4ccnc(C(F)(F)F)c4)nc3c2)cc1` [Compound 172, N-((5-(4-fluorophenoxy)-1H-benzo[d]imidazol-2-yl)methyl)-2-(trifluoromethyl)pyridin-4-amine], in series [1], the half-life at 1 μM was 0.517 to 1 h. Moreover, the IC50 in series [2] lay within 251 to 1000 nM. For the same compound, the solubility at 5 min in series [3] was > 25 µM.

Consider `Nc1cc(OCc2nc3cc(Oc4ccccc4)ccc3[nH]2)nc(C(F)(F)F)n1` [Compound 181, 6-((5-phenoxy-1H-benzo[d]imidazol-2-yl)methoxy)-2-(trifluoromethyl)pyrimidin-4-amine], for which, in series [1], the half-life at 1 μM was > 1 h. For the same compound, on PqsR, the IC50 was in the range of 51 to 250 nM. Further, in series [3], the solubility at 5 min is > 50 µM.
